The text below walks through data of patent US20160089321A1, “ANTIPERSPIRANT COMPOSITIONS” (Johnson & Johnson Consumer Inc., priority 2014, published 2016).

Assay [1] can be described thus: Turbidity measurement caused by gel polymerization in alkaline pH (turbidimeter). In kind it is physicochemical. The note with it: for Potential to gel polymerize in an alkaline environment: summary of Table 1. The procedure:
In this test, a Hach model 2100 lab turbidimeter was used. One solution containing sodium hydroxide at pH 8.5 was prepared and each compound was tested at 10% concentration after mixing. […] The insoluble gel formed should act as an obstruction at the orifice of the sweat gland, reducing the flow of axillary perspiration.

The target in assay [2] is T1, Bovine serum albumin (BSA) (Bos taurus, UniProt P02769).
T1 construct: add 4 g of albumin (available from Sigma-Aldrich) from bovine serum (BSA) to 2000 mL of buffer solution; purchased Sigma-Aldrich A7906; host or cells: bovine serum (natural source)
Put plainly: In vitro active-protein interaction: BSA precipitation by the Bradford method. In kind it is biochemical. The note with it: for Precipitation (BSA): screening test, 10% active solution; for Precipitation (BSA) / % BSA Precipitation: buffer pH 4.9; for % BSA Precipitation: dose-response assay. On the procedure:
Method 2: In Vitro Study to Evaluate Active-Protein Interaction
Bovine serum albumin (BSA) was used as the reference protein to generate the calibration curve. […] The BSA granular, the BSA solution standard and Bradford reagent were all obtained from Sigma-Aldrich (Catalog Number: A7906, PO834, B6916). The buffer solution was made by adding 875 mL of 0.1 Molar sodium hydroxide (SpecSol) to 125 mL 0.1 Molar potassium dihydrogen phosphate (Merck) and its pH was adjusted to BSA isoelectric point (pH 4.9).
1. Prepare buffer by adding 875 mL of 0.1 Molar sodium hydroxide to 125 mL of 0.1 Molar potassium dihydrogen phosphate, adjusted to pH 4.9. This is the buffer solution used to make the active sample solution, the dose-response curve and the protein solution.
2. To prepare an active sample solution for initial screening, add 5 g of the active material to 50 mL of the buffer solution.
3. To prepare the protein solution, add 4 g of albumin (available from Sigma-Aldrich) from bovine serum (BSA) to 2000 mL of buffer solution.
4. To prepare the reaction solution, add 10 mL of the sample solution (step 2) to 50 mL of the protein solution.
5. To prepare the analytical solution, after filtration through a 0.45 μm membrane, 0.01 mL of reaction solution (step 4) to 3 mL of the Bradford reagent. Measure and record the absorbance at 595 nm. Determine the protein concentration by comparison to the standard curve.

Setting [3] is: compound at 10% in sodium hydroxide solution pH 8.5.
[4] abbreviates: mean turbidity, compound at 10% in sodium hydroxide solution pH 8.5.

T1 sequence (P02769 25-607): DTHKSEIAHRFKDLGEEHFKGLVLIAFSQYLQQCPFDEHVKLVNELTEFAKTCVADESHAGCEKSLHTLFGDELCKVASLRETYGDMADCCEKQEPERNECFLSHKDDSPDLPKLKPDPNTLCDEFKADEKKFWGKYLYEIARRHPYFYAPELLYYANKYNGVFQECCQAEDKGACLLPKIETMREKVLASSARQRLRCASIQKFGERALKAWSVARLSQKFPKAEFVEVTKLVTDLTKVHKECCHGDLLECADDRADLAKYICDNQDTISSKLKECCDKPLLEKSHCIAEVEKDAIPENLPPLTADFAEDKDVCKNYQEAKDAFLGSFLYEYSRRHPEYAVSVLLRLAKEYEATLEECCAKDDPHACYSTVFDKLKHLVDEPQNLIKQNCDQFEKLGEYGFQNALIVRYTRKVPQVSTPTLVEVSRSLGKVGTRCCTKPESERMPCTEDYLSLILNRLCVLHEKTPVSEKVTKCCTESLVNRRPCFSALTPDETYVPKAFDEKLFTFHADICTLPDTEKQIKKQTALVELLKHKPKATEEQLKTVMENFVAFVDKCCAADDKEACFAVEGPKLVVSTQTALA

Turning to `CC(=O)[O-].[Na+]` [Sodium acetate], in assay [1] (pH 8.5), the “Physical Observation” value is given as “Liquid” and the “Turbidity pH 8.5” value is on record as 0.9 NTU. For the same molecule, in assay [2], the “Precipitation (BSA)” value is 5%.

In the case of `O=S(=O)([O-])[O-].[Na+].[Na+]` [Sodium sulfate], in assay [1] (pH 8.5), the “Physical Observation” value was “Liquid” and the “Turbidity pH 8.5” value is 1.8 NTU.

As to `O=S(=O)([O-])[O-].[Mg+2]` [Magnesium sulfate Andros], the “Physical Observation” value in assay [1] (setting [3]) is “Liquid”. Moreover, in assay [1] (setting [4]), the “Turbidity pH 8.5” value was 0.5 NTU. In assay [2], the “Precipitation (BSA)” value is reported as 8%.

Consider `O.O=S(=O)([O-])[O-].[Mg+2]` [Magnesium sulfate 1•H2O], for which, in assay [1] (setting [3]), the “Physical Observation” value is reported as “Liquid”. In addition, the “Turbidity pH 8.5” value in assay [1] (setting [4]) is reported as 0.9 NTU. In assay [2], the “Precipitation (BSA)” value worked out at 11%.

On to `N.N.O=S(=O)(O)O` [Ammonium sulfate], for which the “Physical Observation” value in assay [1] (setting [3]) was “Liquid”. The “Turbidity pH 8.5” value in assay [1] (setting [4]) came to 1.1 NTU.

For the molecule `CC(O)C(=O)O.N` (stereo not shown) [Ammonium lactate], in assay [1] (setting [3]), the “Physical Observation” value is “Liquid”. Moreover, the “Turbidity pH 8.5” value in assay [1] (setting [4]) is given as 1.2 NTU.

In the case of `O.O.O.O.O.O=S(=O)([O-])[O-].[Mg+2]` [Magnesium sulfate 5•H2O], in assay [1] (setting [3]), the “Physical Observation” value is “Liquid”. In addition, in assay [1] (setting [4]), the “Turbidity pH 8.5” value worked out at 1.5 NTU. Also, the “Precipitation (BSA)” value in assay [2] worked out at 10%.

With “Aluminum chlorohydrate [reference compound]”, the “% BSA Precipitation” value in assay [2] (1% solution) is 24%; in assay [2] (5% solution), 56%; in assay [2] (10% solution), 79%; in assay [2] (15% solution), 95%.

As for `CC(O)C(=O)[O-].[Na+]` (stereo not shown) [Sodium lactate], the “Physical Observation” value in assay [1] (setting [3]) is recorded as “Liquid”. The “Turbidity pH 8.5” value in assay [1] (setting [4]) stood at 0.5 NTU.

On to `O.O.O.O.O.O.O.O=S(=O)([O-])[O-].[Mg+2]` [Magnesium sulfate 7•H2O], for which the “Physical Observation” value in assay [1] (setting [3]) is on record as “Liquid”. The “Turbidity pH 8.5” value in assay [1] (setting [4]) was 1.5 NTU. In assay [2], the “Precipitation (BSA)” value was determined as 12%.

Regarding `[Mg+2].[O-][Cl+2]([O-])[O-].[O-][Cl+2]([O-])[O-]` [Magnesium chlorate], the “Physical Observation” value in assay [1] (setting [3]) was “Liquid”. Moreover, the “Turbidity pH 8.5” value in assay [1] (setting [4]) was determined as 0.4 NTU. In assay [2], the “Precipitation (BSA)” value is 4%.

Consider `O=S(=O)([O-])c1ccc(O)cc1.O=S(=O)([O-])c1ccc(O)cc1.[Zn+2]` [Zinc Phenolsulfonate, zinc phenolsulfonate], for which the “Physical Observation” value in assay [1] (setting [3]) is “Liquid”. For the same molecule, in assay [1] (setting [4]), the “Turbidity pH 8.5” value was found to be 1.8 NTU. For the same molecule, the “% BSA Precipitation” value in assay [2] (1% solution) was 5%; in assay [2] (5% solution), −1%; in assay [2] (10% solution), 21%; in assay [2] (15% solution), 31%. Besides, in assay [2], the “Precipitation (BSA)” value is 18%. Also, the “Potential to be clogging agents (protein precipitation)” value in assay [2] (summary of Tables 2 and 3) was “demonstrated potential to be clogging agents”.

Take “aluminum sesquichlorohydrate [Aluminium Sesquichlorohydrate, reference compound]”: in assay [1] (setting [3]), the “Physical Observation” value is on record as “Gel Polymerization”. The “Turbidity pH 8.5” value in assay [1] (setting [4]) is listed as 593.0 NTU. Besides, in assay [2], the “Precipitation (BSA)” value was 100%.

For the molecule `CC(=O)[O-].CC(=O)[O-].[Ca+2]` [Calcium acetate], in assay [1] (pH 8.5), the “Physical Observation” value is reported as “Liquid” and the “Turbidity pH 8.5” value is given as 20.0 NTU. The “Precipitation (BSA)” value in assay [2] was found to be 5%.

As for `CC(O)C(=O)[O-].CC(O)C(=O)[O-].[Zn+2]` (stereo not shown) [Zinc Lactate (food), zinc lactate], the “Physical Observation” value in assay [1] (setting [3]) is “Gel Polymerization”. Also, the “Turbidity pH 8.5” value in assay [1] (setting [4]) turned out to be 525.5 NTU. The “Potential to gel polymerize in an alkaline environment” value in assay [1] was “high potential to gel polymerize”.

Take `CC(O)C(=O)[O-].CC(O)C(=O)[O-].[Zn+2]` (stereo not shown) [Zinc Lactate (pharma), zinc lactate]: the “Physical Observation” value in assay [1] (setting [3]) is on record as “Gel Polymerization”. The “Turbidity pH 8.5” value in assay [1] (setting [4]) is reported as 538.0 NTU. For the same molecule, the “Potential to gel polymerize in an alkaline environment” value in assay [1] is recorded as “high potential to gel polymerize”.

In the case of `CC(O)C(=O)[O-].CC(O)C(=O)[O-].[Ca+2]` (stereo not shown) [Calcium lactate], in assay [1] (setting [3]), the “Physical Observation” value was “Liquid”. In addition, in assay [1] (setting [4]), the “Turbidity pH 8.5” value turned out to be 0.9 NTU.
